How the values were obtained:
BJ cells [1] = assay: Transduction efficiency by GFP expression (microscopy, flow cytometry); format: cell-based, human; details: added at transduction with MV vector, 48 hours
Source text: (§1) To increase transduction efficiency the spinoculation technique was established. To reduce MV-induced toxicity, the MOI of transduction was decreased. BJ cells, a neonatal foreskin human cells were purchased from the American Type Culture Collection (ATCC #CRL 2522), and were transduced with the 4F vector at a MOI of 1 instead of 6 as described elsewhere (Driscoll et al., Stem Cell Research and Therapy 6:48 (2015)). In order to induce TLR3 activation during MV reprogramming, the transduction was performed in presence of polyI:C (a TLR3 activator). Transduced cells were subjected or not to spinoculation at 1000 rpm for 1 hour at room temperature. The culture supernatants were replaced with BJ media every three days. After 9 days, optimized serum-free/feeder-free iPSC medium was added and replaced daily. The cells were monitored until reprogrammed cells form small colonies with iPSC morphology (one to two weeks after vector transduction). Pictures were taken at different stages. iPS-like clones were picked after three to four weeks, and plated at 1 colony/well in Matrigel-coated wells for further expansion. […] The most efficient MOI for each vector was determined.
Transduction efficacy of the vectors was tested at different MOI using light microscopy and flow cytometry and testing for GFP expression. BJ cells were transduced with 4F* at a MOI of 0.5 or 0.25. […]

BJ cells [2] = assay: Reprogramming of BJ human fibroblasts into iPSC-like clones; format: cell-based; details: SB431542 5 μM, PD0325901 0.2 μM, Thiazovivin 0.5 μM together, day 7 to 14
Description: Using a reprogramming protocol described elsewhere (Driscoll et al., Stem Cell Research and Therapy 6:48 (2015)), an iPSC-like clone with MV(OCT4)P-ΔH(KLF4) (GFP)H or MV(T) vector in combination with 2 LV encoding SOX2 and cMYC was obtained. The clone obtained with vector MV(T) was analyzed for pluripotency markers (FIGS. 2B and C), for its ability to spontaneously differentiate into the three germ lineages after EB formation (not shown), and its ability to differentiate into contracting cardiomyocytes through guided cardiac differentiation (FIG. 2D).
as §1, with “After 9 days, optimized serum-free/feeder-free iPSC medium was added and replaced daily.” left out, “transduction).” for “transduction). Pictures were taken at different stages. iPS-like clones were picked after three to four weeks, and plated at 1 colony/well in Matrigel-coated wells for further expansion.”
The ability of the MV(OCT4) mir375 to reprogram BJ cells in presence of 3LV expressing SOX2, KLF4, and cMYC was analyzed, and its efficiency was compared to MV(OCT4) and 4LV. […] Using light and fluorescence microscopy, early phases of iPSC-like clone development with MV(OCT4)miR375 were observed (15 days post transduction, FIG. 6B). […] The expression of the N mRNA in the early passages of four iPSC-like clones derived from MV(OCT4)miR375 was analyzed. […] RNA was collected at each passage and RT-PCR for N and P mRNA was analyzed. […]
The ability of the 4F* to reprogram BJ cells was analyzed. […]

Molecule | effect on expression of measles proteins (GFP) (BJ cells [1]) | effect of added small molecules on reprogramming efficiency of MV four factor vectors (BJ cells [2])
polyI:C | does not affect the expression of measles proteins | –
O=C(NCc1ccccc1)c1csc(Nc2ccncn2)n1 [Thiazovivin] | – | improved efficiency
NC(=O)c1ccc(-c2nc(-c3ccc4c(c3)OCO4)c(-c3ccccn3)[nH]2)cc1 [SB431542] | – | improved efficiency
O=C(NOC[C@H](O)CO)c1ccc(F)c(F)c1Nc1ccc(I)cc1F [PD0325901] | – | improved efficiency

Source: patent US20260132420A1, “VIRAL VECTORS FOR NUCLEAR REPROGRAMMING” (Mayor Foundation for Medical Education and Research, priority 2016, published 2026)
